{"source": "the supplement of paper PMC10307832", "experiment_in_all_cases": "relative viability (nuclei count vs DMSO), 5 days (fraction); higher = more cells survive", "key": {"[1]": {"tested_on": "LU99A", "method_in_brief": "(§1)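 After 5 days of treatment, lung cancer cells in 1536-well plates were fixed and stained in a single step (final 0.05% Triton X-100, 1% formaldehyde, 1 ug/ml Hoechst) and their nuclei counted on 4× images. Treatment had been applied by pin tool the day after seeding as one drug alone or as a fixed anchor-drug dose with five library-drug doses (not always all listed) in √10 steps. Relative viability is the nuclei count of treated wells divided by that of vehicle wells, and values are medians of duplicate plates.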"}, "[2]": {"tested_on": "NCI-H650", "method_in_brief": "as §1"}, "[3]": {"tested_on": "LCLC-97TM1", "method_in_brief": "as §1"}, "[4]": {"tested_on": "HCC-15", "method_in_brief": "as §1"}, "[5]": {"tested_on": "NCI-H2009", "method_in_brief": "as §1"}, "[6]": {"tested_on": "NCI-H2126", "method_in_brief": "as §1"}, "[7]": {"tested_on": "NCI-H2228", "method_in_brief": "as §1"}, "[8]": {"tested_on": "BEN", "method_in_brief": "as §1"}, "[9]": {"tested_on": "NCI-H460", "method_in_brief": "as §1"}, "[10]": {"tested_on": "NCI-H322M", "method_in_brief": "as §1"}, "[11]": {"tested_on": "EPLC-272H", "method_in_brief": "as §1"}, "[12]": {"tested_on": "NCI-H647", "method_in_brief": "as §1"}, "[13]": {"tested_on": "HCC-78", "method_in_brief": "as §1"}, "[14]": {"tested_on": "NCI-H23", "method_in_brief": "as §1"}, "[15]": {"tested_on": "201T", "method_in_brief": "as §1"}, "[16]": {"tested_on": "NCI-H838", "method_in_brief": "as §1"}, "[17]": {"tested_on": "PC-14", "method_in_brief": "as §1"}, "[18]": {"tested_on": "NCI-H2085", "method_in_brief": "as §1"}, "[19]": {"tested_on": "NCI-H1355", "method_in_brief": "as §1"}, "[20]": {"tested_on": "NCI-H661", "method_in_brief": "as §1"}, "[21]": {"tested_on": "NCI-H2405", "method_in_brief": "as §1"}}, "data": [{"smiles": "CCNC(=O)c1noc(-c2cc(C(C)C)c(O)cc2O)c1-c1ccc(CN2CCOCC2)cc1", "note": "[Luminespib] + C[C@@H](Oc1cc(-c2cnn(C3CCNCC3)c2)cnc1N)c1c(Cl)ccc(F)c1Cl [Crizotinib] (partner 1 µM)", "values": [{"measurement": "relative viability", "setting": "[1]; first compound 0.002 µM", "result": 0.606}, {"measurement": "relative viability", "setting": "[1]; first compound 0.006325 µM", "result": 0.628}, {"measurement": "relative viability", "setting": "[1]; first compound 0.02 µM", "result": 0.343}, {"measurement": "relative viability", "setting": "[1]; first compound 0.06325 µM", "result": 0.127}, {"measurement": "relative viability", "setting": "[1]; first compound 0.2 µM", "result": 0.112}, {"measurement": "relative viability", "setting": "[2]; first compound 0.002 µM", "result": 0.887}, {"measurement": "relative viability", "setting": "[2]; first compound 0.006325 µM", "result": 0.745}, {"measurement": "relative viability", "setting": "[2]; first compound 0.02 µM", "result": 0.487}, {"measurement": "relative viability", "setting": "[2]; first compound 0.06325 µM", "result": 0.0913}, {"measurement": "relative viability", "setting": "[2]; first compound 0.2 µM", "result": 0.102}, {"measurement": "relative viability", "setting": "[3]; first compound 0.002 µM", "result": 0.417}, {"measurement": "relative viability", "setting": "[3]; first compound 0.006325 µM", "result": 0.461}, {"measurement": "relative viability", "setting": "[3]; first compound 0.02 µM", "result": 0.157}, {"measurement": "relative viability", "setting": "[3]; first compound 0.06325 µM", "result": 0.221}, {"measurement": "relative viability", "setting": "[3]; first compound 0.2 µM", "result": 0.22}, {"measurement": "relative viability", "setting": "[4]; first compound 0.002 µM", "result": 0.836}, {"measurement": "relative viability", "setting": "[4]; first compound 0.006325 µM", "result": 0.863}, {"measurement": "relative viability", "setting": "[4]; first compound 0.02 µM", "result": 0.901}, {"measurement": "relative viability", "setting": "[4]; first compound 0.06325 µM", "result": 0.473}, {"measurement": "relative viability", "setting": "[4]; first compound 0.2 µM", "result": 0.412}, {"measurement": "relative viability", "setting": "[5]; first compound 0.002 µM", "result": 1.14}, {"measurement": "relative viability", "setting": "[5]; first compound 0.006325 µM", "result": 0.918}, {"measurement": "relative viability", "setting": "[5]; first compound 0.02 µM", "result": 1.04}, {"measurement": "relative viability", "setting": "[5]; first compound 0.06325 µM", "result": 0.0632}, {"measurement": "relative viability", "setting": "[5]; first compound 0.2 µM", "result": 0.0663}, {"measurement": "relative viability", "setting": "[6]; first compound 0.002 µM", "result": 1.08}, {"measurement": "relative viability", "setting": "[6]; first compound 0.006325 µM", "result": 0.97}, {"measurement": "relative viability", "setting": "[6]; first compound 0.02 µM", "result": 0.84}, {"measurement": "relative viability", "setting": "[6]; first compound 0.06325 µM", "result": 0.993}, {"measurement": "relative viability", "setting": "[6]; first compound 0.2 µM", "result": 0.951}, {"measurement": "relative viability", "setting": "[7]; first compound 0.002 µM", "result": 0.47}, {"measurement": "relative viability", "setting": "[7]; first compound 0.006325 µM", "result": 0.514}, {"measurement": "relative viability", "setting": "[7]; first compound 0.02 µM", "result": 0.264}, {"measurement": "relative viability", "setting": "[7]; first compound 0.06325 µM", "result": 0.161}, {"measurement": "relative viability", "setting": "[7]; first compound 0.2 µM", "result": 0.148}, {"measurement": "relative viability", "setting": "[8]; first compound 0.002 µM", "result": 0.792}, {"measurement": "relative viability", "setting": "[8]; first compound 0.006325 µM", "result": 0.834}, {"measurement": "relative viability", "setting": "[8]; first compound 0.02 µM", "result": 0.416}, {"measurement": "relative viability", "setting": "[8]; first compound 0.06325 µM", "result": 0.341}, {"measurement": "relative viability", "setting": "[8]; first compound 0.2 µM", "result": 0.203}, {"measurement": "relative viability", "setting": "[9]; first compound 0.002 µM", "result": 0.957}, {"measurement": "relative viability", "setting": "[9]; first compound 0.006325 µM", "result": 0.705}, {"measurement": "relative viability", "setting": "[9]; first compound 0.02 µM", "result": 0.0276}, {"measurement": "relative viability", "setting": "[9]; first compound 0.06325 µM", "result": 0.0089}, {"measurement": "relative viability", "setting": "[9]; first compound 0.2 µM", "result": 0.0097}, {"measurement": "relative viability", "setting": "[10]; first compound 0.002 µM", "result": 0.925}, {"measurement": "relative viability", "setting": "[10]; first compound 0.006325 µM", "result": 0.924}, {"measurement": "relative viability", "setting": "[10]; first compound 0.02 µM", "result": 0.718}, {"measurement": "relative viability", "setting": "[10]; first compound 0.06325 µM", "result": 0.898}, {"measurement": "relative viability", "setting": "[10]; first compound 0.2 µM", "result": 0.808}, {"measurement": "relative viability", "setting": "[11]; first compound 0.006325 µM", "result": 0.892}, {"measurement": "relative viability", "setting": "[11]; first compound 0.02 µM", "result": 0.655}, {"measurement": "relative viability", "setting": "[11]; first compound 0.06325 µM", "result": 0.88}, {"measurement": "relative viability", "setting": "[11]; first compound 0.2 µM", "result": 0.917}, {"measurement": "relative viability", "setting": "[12]; first compound 0.002 µM", "result": 1.22}, {"measurement": "relative viability", "setting": "[12]; first compound 0.006325 µM", "result": 1.07}, {"measurement": "relative viability", "setting": "[12]; first compound 0.02 µM", "result": 1.15}, {"measurement": "relative viability", "setting": "[12]; first compound 0.06325 µM", "result": 0.0916}, {"measurement": "relative viability", "setting": "[12]; first compound 0.2 µM", "result": 0.0805}, {"measurement": "relative viability", "setting": "[13]; first compound 0.002 µM", "result": 0.302}, {"measurement": "relative viability", "setting": "[13]; first compound 0.06325 µM", "result": 0.337}, {"measurement": "relative viability", "setting": "[13]; first compound 0.2 µM", "result": 0.232}, {"measurement": "relative viability", "setting": "[14]; first compound 0.002 µM", "result": 0.56}, {"measurement": "relative viability", "setting": "[14]; first compound 0.006325 µM", "result": 0.538}, {"measurement": "relative viability", "setting": "[14]; first compound 0.02 µM", "result": 0.445}, {"measurement": "relative viability", "setting": "[14]; first compound 0.06325 µM", "result": 0.119}, {"measurement": "relative viability", "setting": "[14]; first compound 0.2 µM", "result": 0.123}, {"measurement": "relative viability", "setting": "[15]; first compound 0.002 µM", "result": 0.995}, {"measurement": "relative viability", "setting": "[15]; first compound 0.006325 µM", "result": 0.981}, {"measurement": "relative viability", "setting": "[15]; first compound 0.02 µM", "result": 0.968}, {"measurement": "relative viability", "setting": "[15]; first compound 0.06325 µM", "result": 1.03}, {"measurement": "relative viability", "setting": "[15]; first compound 0.2 µM", "result": 1.03}, {"measurement": "relative viability", "setting": "[16]; first compound 0.002 µM", "result": 0.947}, {"measurement": "relative viability", "setting": "[16]; first compound 0.006325 µM", "result": 0.78}, {"measurement": "relative viability", "setting": "[16]; first compound 0.02 µM", "result": 0.755}, {"measurement": "relative viability", "setting": "[16]; first compound 0.06325 µM", "result": 0.285}, {"measurement": "relative viability", "setting": "[16]; first compound 0.2 µM", "result": 0.101}, {"measurement": "relative viability", "setting": "[17]; first compound 0.002 µM", "result": 0.973}, {"measurement": "relative viability", "setting": "[17]; first compound 0.006325 µM", "result": 0.845}, {"measurement": "relative viability", "setting": "[17]; first compound 0.02 µM", "result": 1.12}, {"measurement": "relative viability", "setting": "[17]; first compound 0.06325 µM", "result": 0.171}, {"measurement": "relative viability", "setting": "[17]; first compound 0.2 µM", "result": 0.102}, {"measurement": "relative viability", "setting": "[18]; first compound 0.002 µM", "result": 1.04}, {"measurement": "relative viability", "setting": "[18]; first compound 0.006325 µM", "result": 0.953}, {"measurement": "relative viability", "setting": "[18]; first compound 0.02 µM", "result": 0.948}, {"measurement": "relative viability", "setting": "[18]; first compound 0.06325 µM", "result": 0.383}, {"measurement": "relative viability", "setting": "[18]; first compound 0.2 µM", "result": 0.272}, {"measurement": "relative viability", "setting": "[19]; first compound 0.002 µM", "result": 1.1}, {"measurement": "relative viability", "setting": "[19]; first compound 0.006325 µM", "result": 1.05}, {"measurement": "relative viability", "setting": "[19]; first compound 0.02 µM", "result": 0.62}, {"measurement": "relative viability", "setting": "[19]; first compound 0.06325 µM", "result": 1.08}, {"measurement": "relative viability", "setting": "[19]; first compound 0.2 µM", "result": 1.08}, {"measurement": "relative viability", "setting": "[20]; first compound 0.006325 µM", "result": 0.936}, {"measurement": "relative viability", "setting": "[20]; first compound 0.02 µM", "result": 1.05}, {"measurement": "relative viability", "setting": "[20]; first compound 0.06325 µM", "result": 0.939}, {"measurement": "relative viability", "setting": "[20]; first compound 0.2 µM", "result": 0.715}, {"measurement": "relative viability", "setting": "[21]; first compound 0.002 µM", "result": 0.829}, {"measurement": "relative viability", "setting": "[21]; first compound 0.006325 µM", "result": 0.644}, {"measurement": "relative viability", "setting": "[21]; first compound 0.02 µM", "result": 0.705}, {"measurement": "relative viability", "setting": "[21]; first compound 0.06325 µM", "result": 0.615}, {"measurement": "relative viability", "setting": "[21]; first compound 0.2 µM", "result": 0.257}]}]}
